In patent publication US20210196714A1, “COMPOSITIONS AND METHODS FOR TREATING DISORDERS CHARACTERIZED WITH ABERRANT RAS/MAPK SIGNALING” (Duke University, priority 2018, published 2021):
“Also recorded” adds a separate entry of the source.

Experiments:
kdm6a-MO embryos = experiment: Jaw defect (MK-CH distance) in kdm6a-MO embryos; format: in vivo, zebrafish; settings: kdm6a morphant, 5 dpf
Procedure: FIG. 4: Compound 8 ameliorates the CE and jaw defects caused by loss of rap/and kdm6a. (a) gRNA targeting both zebrafish rap1a and rap1b were injected into embryos at the 1-cell stage with Cas9 protein. Larvae were incubated with compound 8 (100 nM) at the 8-cell stage and scored for micrognathia. 5 dpf larvae were stained with Alcian blue to assess the layout of the jaw cartilage. In comparison to control embryos (top), rap1-CRISPR embryos have smaller jaws. […] (b) Quantitative measurement of the distance between MK and CH cartilages. (c) Larvae were scored for CE (n>30 for each concentration). (d) 5 dpf embryos were stained with Alcian blue to assess the layout of jaw cartilage. […] (e) Quantitative measurement of the distance between MK and CH cartilages. *p<0.05; ***p<0.001. […]
For convergence and extension (CE) phenotyping, embryos were scored as described (see, Leitch, C. C. et al. Nat Genet 40, 443-8 (2008)) at the 8-10 somite stage, and images were captured using an AZ100 microscope and NIS Elements software (Nikon). […] The distance between Meckel's (MK) and ceratohyal (CH) cartilages was measured on ventral bright field images with Image J (NIH). […] Fluorescence signal on embryo heads was imaged with the Nikon AZ100 microscope and DS-Qi1MC digital camera using […] Z-stacks to generate extended depth of focus images. Cell numbers were quantified using the ImageJ ICTN plugin (NIH). […]

pMEK1/2 = experiment: Western blot of pMEK1/2 in head lysate of 5 dpf embryos; format: in vivo, zebrafish; settings: 100 nM or 500 nM
Procedure: FIG. 7: dmDf attenuates hyperactive MEK signaling in vivo. (a) Western blot analysis for the level of pMEK1/2 from the head lysate of 5 dpf zebrafish embryos. Depletion of kmt2d (lane 4) elevates the abundance of pMEK1/2 in comparison to control embryos (lane 1). […] (b) Summary of the relative levels of pMEK1/2 from three independent experiments. *p<0.05 (n=3). (c) kmt2d morphants were treated with serially increasing concentrations of dmDf. The embryos were scored for CE phenotypes as described earlier (n>25 for each concentration. (d) The distance between MK and CH cartilages was measured from the same embryos as in (c). *p<0.05; **p<0.01. Error bars show SEM (standard error of the mean).
The phenotypic rescue of the zebrafish KS models by dmDf predicts a successful attenuation of hyperactive MEK signaling. To test this hypothesis directly, experiments were conducted that suppressed kmt2d, harvested and pooled protein from embryo heads (n=20/condition) and measured the abundance of phosphorylated (activated) MEK1/2 (pMEK1/2).
Zebrafish larvae (5 dpf; n=20) were decapitated and heads were homogenized with RIPA buffer (50 mM NaCl, 1% NP40, 50 mM Tris-HCl pH 7.5, 0.1% SDS, 0.5% Na deoxycholate, 1 mM Na3VO4, and 1 mM NaF). […]

[1] = Solubility test in egg water; format: physicochemical; settings: DMSO stock diluted in water (100×)
Procedure: To guard against possible bias, the tool and negative control compounds were interspersed across the experiment and the zebrafish phenotyping team was blinded to the identity of each compound. Typical of small molecule storage, each of the 29 compounds was dissolved in dimethyl sulfoxide (DMSO). Therefore, such compounds were first diluted in water (100×) and its solubility tested in egg water; three compounds were insoluble and were thus removed from further testing (see, FIG. 1A). Next, each compound was diluted serially with egg water and toxicity tested by assaying the percentage of abnormal or dead embryos across three different concentrations (10 μM, 1 μM, 100 nM; FIG. 1B).

[2] = test system: zebrafish kmt2d morphants; experiment: Rescue of convergent-extension (CE) phenotype in kmt2d morphants; format: in vivo; settings: dose response

Compound | jaw length / MK-CH distance (kdm6a-MO embryos) | abundance of pMEK1/2 (pMEK1/2; kmt2d suppressed, 5 dpf heads, listed as dmDf) | abundance of pMEK1/2 (pMEK1/2; uninjected embryos) | solubility tested in egg water [1] | CE defects at 50 nM and 100 nM doses ([2]; 50 and 100 nM) | CE rescue at dosages beyond 100 nM ([2]; above 100 nM up to 1 μM)
CC[C@@H](CO)Nc1ncc(C)c(-c2c[nH]c(C(=O)N[C@H](CO)c3cccc(Cl)c3)c2)n1 [Compound 2, N-((S)-1-(3-chlorophenyl)-2-hydroxyethyl)-4-(2-(((S)-1-hydroxybutan-2-yl)amino)-5-methylpyrimidin-4-yl)-1H-pyrrole-2-carboxamide] | restored significantly the jaw length of morphants and mutants to nearly wild type levels | – | – | – | – | –
CC(C)c1nc(-c2cccc(NS(=O)(=O)c3c(F)cccc3F)c2F)c(-c2ccnc(N)n2)s1 [Compound 8, desmethyl-Dabrafenib] | can be ameliorated; also recorded: restored significantly the jaw length of morphants and mutants to nearly wild type levels | attenuates hyperactivation of MEK1/2; also recorded: restored the abundance of pMEK1/2 to levels indistinguishable from wild type embryos | neither concentration had an appreciable effect | soluble | Significant rescue | higher dosages did not improve efficacy any further
